SMILES strings stand for the structures.

In the first test the target is T1, GCS (Canis lupus familiaris, UniProt A0A8I3MXG6).
T1 sequence (A0A8I3MXG6 1-394): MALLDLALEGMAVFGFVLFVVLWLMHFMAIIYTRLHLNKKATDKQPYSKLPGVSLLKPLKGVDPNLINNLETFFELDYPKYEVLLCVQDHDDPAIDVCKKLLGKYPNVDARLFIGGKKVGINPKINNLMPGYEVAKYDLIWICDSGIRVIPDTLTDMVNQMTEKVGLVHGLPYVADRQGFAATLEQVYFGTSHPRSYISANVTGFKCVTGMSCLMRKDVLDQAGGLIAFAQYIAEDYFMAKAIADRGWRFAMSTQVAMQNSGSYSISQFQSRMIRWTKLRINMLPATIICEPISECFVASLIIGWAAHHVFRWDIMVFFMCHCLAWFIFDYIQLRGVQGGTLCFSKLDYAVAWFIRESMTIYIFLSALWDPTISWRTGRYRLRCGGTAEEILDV
As to the kind of experiment: Assay 1: GCS Enzymatic Assay (MDCK cell lysate, C6-NBD-Ceramide, LC/MS). The class given is biochemical, canine. To be noted: Table 2; data marked by *. In outline: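 LC/MS/MS measurement of glucosylceramide and NBD-ceramide after a 1 h, 37 °C reaction with 100 μM UDP-glucose and 10 μM C6-NBD-ceramide gave IC50s or percent inhibition.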
Consider `O=C(CCc1ccc2ccccc2c1)C(=O)N[C@H](CN1CCC1)[C@H](O)c1cc(F)c2c(c1)OCCO2` [Compound 145, N-((1R,2R)-3-(azetidin-1-yl)-1-(8-fluoro-2,3-dihydrobenzo[b][1,4]dioxin-6-yl)-1-hydroxypropan-2-yl)-4-(naphthalen-2-yl)-2-oxobutanamide], for which the “% inhibition generated from Assay 1” value is “A* (the compound had a % inhibition of a percent inhibition of greater than or equal to about 50%)”.

Consider `O=C(CCc1ccc2ccccc2c1)C(=O)N[C@H](CN1CCCC1)[C@H](O)c1ccc(OC2CC2)c(Cl)c1` [Compound 147, N-((1R,2R)-1-(3-chloro-4-cyclopropoxyphenyl)-1-hydroxy-3-(pyrrolidin-1-yl)propan-2-yl)-4-(naphthalen-2-yl)-2-oxobutanamide], for which the “% inhibition generated from Assay 1” value is “A* (the compound had a % inhibition of a percent inhibition of greater than or equal to about 50%)”.

With `O=C(CCc1ccc2cc(F)ccc2c1)C(=O)N[C@H](CN1CCC1)[C@H](O)c1ccc(OC2CC2)c(Cl)c1` [Compound 154, N-((1R,2R)-3-(azetidin-1-yl)-1-(3-chloro-4-cyclopropoxyphenyl)-1-hydroxypropan-2-yl)-4-(6-fluoronaphthalen-2-yl)-2-oxobutanamide], the “% inhibition generated from Assay 1” value is “B* (the compound had a % inhibition of greater than or equal to about 3% but less than about 50%)”.

For the compound `O=C(N[C@H](CN1CCC1)[C@H](O)c1ccc(OC2CC2)c(Cl)c1)C(F)(F)c1ccc(-c2ccc(F)cc2)cc1` [Compound 162, N-((1R,2R)-3-(azetidin-1-yl)-1-(3-chloro-4-cyclopropoxyphenyl)-1-hydroxypropan-2-yl)-2,2-difluoro-2-(4′-fluoro-[1,1′-biphenyl]-4-yl)acetamide], the “% inhibition generated from Assay 1” value was “A* (the compound had a % inhibition of a percent inhibition of greater than or equal to about 50%)”.

With `O=C(N[C@H](CN1CCC1)[C@H](O)c1ccc(OC2CC2)c(Cl)c1)/C(CCc1ccc2ccccc2c1)=N/O` [Compound 164, (E)-N-((1R,2R)-3-(azetidin-1-yl)-1-(3-chloro-4-cyclopropoxyphenyl)-1-hydroxypropan-2-yl)-2-(hydroxyimino)-4-(naphthalen-2-yl)butanamide], the “% inhibition generated from Assay 1” value was “A* (the compound had a % inhibition of a percent inhibition of greater than or equal to about 50%)”.

Still in this test, the particulars now being: Table 2; data without asterisk; read-out: IC50 (nM) generated from Assay 1.
What is called IC50 is the concentration at which inhibition is half-maximal. In the case of `O=C(N[C@H](CN1CCCC1)[C@H](O)c1ccc(OC2CC2)c(Cl)c1)/C(CCc1ccc2ccccc2c1)=N/O` [Compound 142, (E)-N-((1R,2R)-1-(3-chloro-4-cyclopropoxyphenyl)-1-hydroxy-3-(pyrrolidin-1-yl)propan-2-yl)-2-(hydroxyimino)-4-(naphthalen-2-yl)butanamide], the IC50 was less than 50 nM.

As to `O=C(CCc1ccc2ccccc2c1)C(=O)N[C@H](CN1CCCC1)[C@H](O)c1cc(F)c2c(c1)OCCO2` [Compound 143, N-((1R,2R)-1-(8-fluoro-2,3-dihydrobenzo[b][1,4]dioxin-6-yl)-1-hydroxy-3-(pyrrolidin-1-yl)propan-2-yl)-4-(naphthalen-2-yl)-2-oxobutanamide], the IC50 was less than 50 nM.

Consider `O=C(N[C@H](CN1CCC1)[C@H](O)c1ccc2c(c1)OCCO2)C(F)(F)CCc1ccc2ccccc2c1` [Compound 144, N-((1R,2R)-3-(azetidin-1-yl)-1-(2,3-dihydrobenzo[b][1,4]dioxin-6-yl)-1-hydroxypropan-2-yl)-2,2-difluoro-4-(naphthalen-2-yl)butanamide], for which the IC50 is less than 50 nM.

Consider `O=C(N[C@H](CN1CCCC1)[C@H](O)c1ccc(OC2CCOCC2)c(Cl)c1)C(F)(F)c1ccc2cc(Cl)ccc2c1` [Compound 146, N-((1R,2R)-1-(3-chloro-4-((tetrahydro-2H-pyran-4-yl)oxy)phenyl)-1-hydroxy-3-(pyrrolidin-1-yl)propan-2-yl)-2-(6-chloronaphthalen-2-yl)-2,2-difluoroacetamide], for which the IC50 is less than 50 nM.

Take `O=C(N[C@H](CN1CCCC1)[C@H](O)c1cc(F)c2c(c1)OCCO2)/C(CCc1ccc2ccccc2c1)=N/O` [Compound 148, (E)-N-((1R,2R)-1-(8-fluoro-2,3-dihydrobenzo[b][1,4]dioxin-6-yl)-1-hydroxy-3-(pyrrolidin-1-yl)propan-2-yl)-2-(hydroxyimino)-4-(naphthalen-2-yl)butanamide]: the IC50 was less than 50 nM.

In the case of `O=C(N[C@H](CN1CCCC1)[C@H](O)c1ccc(OC2CC2)c(Cl)c1)C(=O)c1ccc(-c2ccc(F)cc2)cc1` [Compound 149, N-((1R,2R)-1-(3-chloro-4-cyclopropoxyphenyl)-1-hydroxy-3-(pyrrolidin-1-yl)propan-2-yl)-2-(4′-fluoro-[1,1′-biphenyl]-4-yl)-2-oxoacetamide], the IC50 was less than 50 nM.

`O=C(N[C@H](CN1CCC1)[C@H](O)c1cc(F)c2c(c1)OCCO2)C(=O)c1ccc(-c2ccc(F)cc2)cc1` [Compound 150, N-((1R,2R)-3-(azetidin-1-yl)-1-(8-fluoro-2,3-dihydrobenzo[b][1,4]dioxin-6-yl)-1-hydroxypropan-2-yl)-2-(4′-fluoro-[1,1′-biphenyl]-4-yl)-2-oxoacetamide]: the IC50 was less than 50 nM.

Turning to `O=C(N[C@H](CN1CCCC1)[C@H](O)c1cc(F)c2c(c1)OCCO2)C(=O)c1ccc2cc(Cl)ccc2c1` [Compound 151, 2-(6-chloronaphthalen-2-yl)-N-((1R,2R)-1-(8-fluoro-2,3-dihydrobenzo[b][1,4]dioxin-6-yl)-1-hydroxy-3-(pyrrolidin-1-yl)propan-2-yl)-2-oxoacetamide], the IC50 is less than 50 nM.

With `O=C(N[C@H](CN1CCCC1)[C@H](O)c1ccc(OC2CCOCC2)c(Cl)c1)C(=O)c1ccc(-c2ccc(F)cc2)cc1` [Compound 152, N-((1R,2R)-1-(3-chloro-4-((tetrahydro-2H-pyran-4-yl)oxy)phenyl)-1-hydroxy-3-(pyrrolidin-1-yl)propan-2-yl)-2-(4′-fluoro-[1,1′-biphenyl]-4-yl)-2-oxoacetamide], the IC50 was less than 50 nM.

Consider `O=C(N[C@H](CN1CCCC1)[C@H](O)c1ccc(OC2CC2)c(Cl)c1)/C(=N/O)c1ccc(-c2ccc(F)cc2)cc1` [Compound 153, (E)-N-((1R,2R)-1-(3-chloro-4-cyclopropoxyphenyl)-1-hydroxy-3-(pyrrolidin-1-yl)propan-2-yl)-2-(4′-fluoro-[1,1′-biphenyl]-4-yl)-2-(hydroxyimino)acetamide], for which the IC50 is less than 50 nM.

As for `O=C(N[C@H](CN1CCC1)[C@H](O)c1cc(F)c2c(c1)OCCO2)/C(=N/O)c1ccc(-c2ccc(F)cc2)cc1` [Compound 155, (E)-N-((1R,2R)-3-(azetidin-1-yl)-1-(8-fluoro-2,3-dihydrobenzo[b][1,4]dioxin-6-yl)-1-hydroxypropan-2-yl)-2-(4′-fluoro-[1,1′-biphenyl]-4-yl)-2-(hydroxyimino)acetamide], the IC50 is less than 50 nM.

Consider `O=C(N[C@H](CN1CCCC1)[C@H](O)c1cc(F)c2c(c1)OCCO2)C(=O)c1ccc2ccc(Cl)cc2c1` [Compound 156, 2-(7-chloronaphthalen-2-yl)-N-((1R,2R)-1-(8-fluoro-2,3-dihydrobenzo[b][1,4]dioxin-6-yl)-1-hydroxy-3-(pyrrolidin-1-yl)propan-2-yl)-2-oxoacetamide], for which the IC50 was less than 50 nM.

In the case of `O=C(N[C@H](CN1CCC1)[C@H](O)c1cc(F)c2c(c1)OCCO2)C(F)(F)c1ccc(-c2ccc(F)cc2)cc1` [Compound 157, N-((1R,2R)-3-(azetidin-1-yl)-1-(8-fluoro-2,3-dihydrobenzo[b][1,4]dioxin-6-yl)-1-hydroxypropan-2-yl)-2,2-difluoro-2-(4′-fluoro-[1,1′-biphenyl]-4-yl)acetamide], the half-maximal inhibitory concentration (IC50) is less than 50 nM.

As for `O=C(N[C@H](CN1CCCC1)[C@H](O)c1cc(F)c2c(c1)OCCO2)/C(=N/O)c1ccc2cc(Cl)ccc2c1` [Compound 158, (E)-2-(6-chloronaphthalen-2-yl)-N-((1R,2R)-1-(8-fluoro-2,3-dihydrobenzo[b][1,4]dioxin-6-yl)-1-hydroxy-3-(pyrrolidin-1-yl)propan-2-yl)-2-(hydroxyimino)acetamide], the IC50 is less than 50 nM.

For the compound `O=C(N[C@H](CN1CCCC1)[C@H](O)c1ccc(OC2CC2)c(Cl)c1)C(F)(F)c1ccc(-c2ccc(F)cc2)cc1` [Compound 159, N-((1R,2R)-1-(3-chloro-4-cyclopropoxyphenyl)-1-hydroxy-3-(pyrrolidin-1-yl)propan-2-yl)-2,2-difluoro-2-(4′-fluoro-[1,1′-biphenyl]-4-yl)acetamide], the IC50 is less than 50 nM.

Turning to `O=C(N[C@H](CN1CCCC1)[C@H](O)c1ccc2c(c1)OCCO2)C(F)(F)c1ccc(-c2ccc(F)cc2)cc1` [Compound 160, N-((1R,2R)-1-(2,3-dihydrobenzo[b][1,4]dioxin-6-yl)-1-hydroxy-3-(pyrrolidin-1-yl)propan-2-yl)-2,2-difluoro-2-(4′-fluoro-[1,1′-biphenyl]-4-yl)acetamide], the concentration for half-maximal inhibition (IC50) was less than 50 nM.

With `O=C(N[C@H](CN1CCC1)[C@H](O)c1ccc2c(c1)OCCO2)C(F)(F)c1ccc(-c2ccc(F)cc2)cc1` [Compound 161, N-((1R,2R)-3-(azetidin-1-yl)-1-(2,3-dihydrobenzo[b][1,4]dioxin-6-yl)-1-hydroxypropan-2-yl)-2,2-difluoro-2-(4′-fluoro-[1,1′-biphenyl]-4-yl)acetamide], the IC50 was less than 50 nM.

As for `O=C(N[C@H](CN1CCCC1)[C@H](O)c1ccc(OC2CCOCC2)c(Cl)c1)C(F)(F)c1ccc(-c2ccc(F)cc2)cc1` [Compound 163, N-((1R,2R)-1-(3-chloro-4-((tetrahydro-2H-pyran-4-yl)oxy)phenyl)-1-hydroxy-3-(pyrrolidin-1-yl)propan-2-yl)-2,2-difluoro-2-(4′-fluoro-[1,1′-biphenyl]-4-yl)acetamide], the IC50 was less than 50 nM.

For the origin of these results see US10227323B2, “Glucosylceramide synthase inhibitors for the treatment of diseases” (BIOMARIN PHARMACEUTICAL INC., priority 2013, dated 2019).
